We go through 6 compounds from patent publication US12145899B2, “Deuterated analogs of acetyl-leucine” (INTRABIO LTD., priority 2018, dated 2024).

In series [1] the test system is Tay-Sachs, AB Variant patient-derived fibroblast cells. The series can be described thus: Tay-Sachs AB human fibroblast cell assay: lysosomal volume by LysoTracker flow cytometry. Type of series: cell-based. The conditions noted are these: for LysoTracker signal relative to untreated (1.00): Tay-Sachs AB Variant fibroblasts, 1 mM, 7 days, n=3. How it is done: FIG. 2 is bar graph showing the effect of acetyl-leucine (referred to as IB1000) and acetyl-leucine-2,3,3,4-d4 (referred to as DIB1000) in a Tay-Sachs AB human fibroblast cell assay. Tay-Sachs, AB Variant patient-derived fibroblast cells were treated with 1 mM acetyl-leucine or acetyl-leucine-2,3,3,4-d4 to compare LysoTracker signals. Untreated; 1.00±0.02, n=3, Acetyl-leucine; 0.97±0.01, n=3, Acetyl-leucine-2,3,3,4-d4; 0.91±0.02, n=3. One-way ANOVA was conducted for statistical analysis. */**p<0.003/0.02. The technique applied in the present study is described in te Vruchte et al., J. Clin. Invest. 3:1320-1328 (2014). Briefly, human fibroblasts from patients with Tay-Sachs Disease, AB Variant were purchased from the NINDS Human Genetic Repository at the Coriell Institute, 403 Haddon Avenue, Camden, N.J., 08103, USA. Fibroblasts or Chinese Hamster Ovary cells were grown in T75 culture flasks, treated for 7 days with compounds, trypsinized, centrifuged (180 g, 5 min), washed twice with 1×PBS, centrifuged again and were stained with 1 ml of 100 nM LysoTracker-green DND-26 (Invitrogen) in PBS (10 min, in dark). Following incubation, cells were centrifuged (800 g, 5 min), resuspended in 0.5 ml of FACS buffer (0.1% BSA, 0.02 M NaN3 in 1×PBS) and kept on ice for a maximum of 1 h prior to flow cytometric analysis (BD Biosciences FACSCanto II or Accuri C6 Plus). The cytometer was calibrated using Cytometer Setup and Tracking beads (BD), and compensation was performed using cells stained with Lysotracker or Propidium Iodide using BD FACSDiva software (BD) or BD Accuri C6 Plus software (BD).
(A flow cytometer gives signals particle by particle.)

In series [2] the test system is NPC CHO cells. The experiment in a line: NPC cellular phenotype assay: lysosomal volume by LysoTracker flow cytometry. The conditions noted are these: for LysoTracker fluorescence, fold change relative to untreated samples (normalised as 1.0): NPC CHO cells, treated 7 days, Mean±SD, n=3, concentration of the compared values not printed in the legend (b616 names 1 mM). The format is cell-based, Chinese Hamster. How it is done:
FIG. 1 is a line graph showing the effect of acetyl-leucine (referred to as IB1000) and acetyl-leucine-2,3,3,4-d4 (referred to as DIB1000) in a NPC cellular phenotype assay. NPC CHO cells were treated with 1, 10, 100, 1000, and 5000 μM of acetyl-leucine or acetyl-leucine-2,3,3,4-d4 for 7 days. Data shown is Mean±SD of 1-3 biological repeats. LysoTracker fluorescence is expressed as fold change relative to responses obtained from untreated samples (normalised as 1.0). Acetyl-leucine; 0.79±0.05, Acetyl-leucine-2,3,3,4-d4; 0.45±0.03, unpaired t test, Two-tailed test, **p<0.01, n=3. The technique applied in the present study is described in te Vruchte et al., J. Clin. Invest. 3:1320-1328 (2014). Briefly, human fibroblasts from patients with Tay-Sachs Disease, AB Variant were purchased from the NINDS Human Genetic Repository at the Coriell Institute, 403 Haddon Avenue, Camden, N.J., 08103, USA. Fibroblasts or Chinese Hamster Ovary cells were grown in T75 culture flasks, treated for 7 days with compounds, trypsinized, centrifuged (180 g, 5 min), washed twice with 1×PBS, centrifuged again and were stained with 1 ml of 100 nM LysoTracker-green DND-26 (Invitrogen) in PBS (10 min, in dark). Following incubation, cells were centrifuged (800 g, 5 min), resuspended in 0.5 ml of FACS buffer (0.1% BSA, 0.02 M NaN3 in 1×PBS) and kept on ice for a maximum of 1 h prior to flow cytometric analysis (BD Biosciences FACSCanto II or Accuri C6 Plus). The cytometer was calibrated using Cytometer Setup and Tracking beads (BD), and compensation was performed using cells stained with Lysotracker or Propidium Iodide using BD FACSDiva software (BD) or BD Accuri C6 Plus software (BD).

The nature of series [3]: Pharmacokinetic study, plasma concentration after p.o. administration. Type of series: in vivo, male BALB/c mice. The conditions noted are these: for ratio for AUClast, deuterated analyte/non-deuterated analyte / ratio for Cmax, deuterated analyte/non-deuterated analyte: mice; for Cmax / AUC(0-t): male, BALB/c, mouse, plasma, po, 100 mg/kg, male BALB/c mice. The method, then:
Acetyl-leucine, acetyl-L-leucine, acetyl-leucine-2,3,3,4-d4 (1-rac), and acetyl-L-leucine-2,3,3,4-d4 (1) were administered to male BALB/c mice via the oral (p.o) route. Plasma and tissue samples were collected at predetermined time points and analysed using HR/MS.

[4] abbreviates: deuterated or non-deuterated acetyl-L-leucine administered p.o. 100 mg/kg.
The mark [5] stands for this setting: deuterated or non-deuterated acetyl-leucine (racemate) administered p.o. 100 mg/kg.
Where [6] appears, read: plasma analyte after p.o. acetyl-L-leucine-2,3,3,4-d4 (1) 100 mg/kg in saline.
[7] abbreviates: plasma analyte after p.o. acetyl-L-leucine-2,3,3,4-d4 (1) 100 mg/kg.
[8] abbreviates: plasma analyte after p.o. acetyl-leucine-2,3,3,4-d4 (1-rac) 100 mg/kg in saline.
The mark [9] stands for this setting: plasma analyte after p.o. acetyl-leucine-2,3,3,4-d4 (1-rac) 100 mg/kg.
[10] abbreviates: plasma analyte after p.o. acetyl-L-leucine 100 mg/kg.
The mark [11] stands for this setting: plasma analyte after p.o. acetyl-leucine 100 mg/kg.

For `CC(=O)NC(CC(C)C)C(=O)O` (racemic) [acetyl-leucine, N-acetyl-DL-leucine], the “LysoTracker signal relative to untreated (1.00)” value in series [1] worked out at 0.97±0.01. In addition, the “LysoTracker fluorescence, fold change relative to untreated samples (normalised as 1.0)” value in series [2] came out at 0.79±0.05 fold change.

The term Cmax denotes the maximum level reached in the sampled fluid or tissue. A word on the AUC(0-t): it is the area under the concentration-time curve up to a stated or last time point. Low values mean less exposure, high ones more exposure. With `[2H]C(C)(C)C([2H])([2H])[C@@]([2H])(NC(C)=O)C(=O)O` [acetyl-D-leucine-2,3,3,4-d4], the “ratio for AUClast, deuterated analyte/non-deuterated analyte” value is reported as 5.50 in series [3] (setting [4]) and 1.72 in series [3] (setting [5]). The “ratio for Cmax, deuterated analyte/non-deuterated analyte” value in series [3] (setting [4]) was 7.40; in series [3] (setting [5]) it was 0.59. In addition, the values for the highest concentration (Cmax) in series [3] (setting [6]) and in series [3] (setting [8]) were 3230 ng/mL and 50600 ng/mL, respectively. The values for the AUC(0-t) in series [3] (setting [7]) and in series [3] (setting [9]) were 3150 ng·h/mL and 99600 ng·h/mL, respectively.

With `CC(=O)N[C@H](CC(C)C)C(=O)O` [acetyl-D-leucine, N-acetyl-D-leucine, reference compound], the AUC(0-t) came out at 573 ng·h/mL in series [3] (setting [10]) and 57800 ng·h/mL in series [3] (setting [11]).

Take `[2H]C(C)(C)C([2H])([2H])[C@]([2H])(NC(C)=O)C(=O)O` (racemic) [acetyl-leucine-2,3,3,4-d4, Acetyl-leucine-2,3,3,4-d4]: in series [1], the “LysoTracker signal relative to untreated (1.00)” value is on record as 0.91±0.02. The “LysoTracker fluorescence level compared to acetyl-leucine” value in series [1] (Tay-Sachs AB Variant human fibroblast cell line, 1 mM vs 1 mM acetyl-leucine) was “significant reduction”; in series [2] (NPC CHO cell line, 1 mM vs 1 mM acetyl-leucine) it was “significant reduction”. Besides, the “LysoTracker fluorescence, fold change relative to untreated samples (normalised as 1.0)” value in series [2] stood at 0.45±0.03 fold change.

For the compound `CC(=O)N[C@@H](CC(C)C)C(=O)O` [acetyl-L-leucine, N-acetyl-L-leucine, reference compound], the values for the AUC(0-t) in series [3] (setting [10]) and in series [3] (setting [11]) were 11400 ng·h/mL and 2600 ng·h/mL, respectively.

For `[2H]C(C)(C)C([2H])([2H])[C@]([2H])(NC(C)=O)C(=O)O` [acetyl-L-leucine-2,3,3,4-d4, Acetyl-L-leucine-2,3,3,4-d4], the “ratio for AUClast, deuterated analyte/non-deuterated analyte” value is recorded as 1.61 in series [3] (setting [4]) and 1.32 in series [3] (setting [5]). Moreover, the “ratio for Cmax, deuterated analyte/non-deuterated analyte” value in series [3] (setting [4]) was 1.75; in series [3] (setting [5]) it was 1.14. For the same compound, the Cmax in series [3] (setting [6]) amounted to 29300 ng/mL; in series [3] (setting [8]), 3880 ng/mL. Further, the AUC(0-t) was 18200 ng·h/mL in series [3] (setting [7]) and 3430 ng·h/mL in series [3] (setting [9]).
